Structures are written as SMILES. Where a name gives a salt, the structure may show the parent alone.

The experiment has as its system PMS1. The experiment is described as follows: Mini-Gene Reporter Assay—PMS1 (firefly luciferase mini-gene reporter transiently transfected into HEK293 cells). The format is cell-based. Conditions: Homo sapiens, mini-gene firefly luciferase reporter in HEK293 cells; for activation at 5 µM: read-out: PMS1 % Effect at 5 uM. From the text:
Example 76. Mini-Gene Reporter Assay—PMS1
Mini-gene reporter constructs for each target site can be constructed by first PCR amplifying the region-of-interest including the sequence of the alternatively skipped, sequences of the immediate upstream and downstream introns, and sequences of the immediate upstream and downstream exons. Then the 3′ end of the amplified sequence can be ligated to a firefly luciferase reporter gene and cloned into the pcDNA3.1 vector backbone. The final reporter construct can be transiently transfected into HEK293 cells using Lipofectamine 3000 transfection reagents. Compounds that can induce the inclusion of the skipped exon in the reporter construct would increase the reporter firefly luciferase activity.
Test compounds may be diluted in duplicates and dispensed into an assay plate. Transient mini-gene reporter cell line stock is resuspended and dispensed into the assay plate. Assay plates are then centrifuged and incubated. A luciferase reagent (e.g. ONE-Glo firefly luciferase reagent from Promega®) may be added to the assay plate and the luminescence (RLU) signals recorded. EC50 values may be determined by curve fitting in Levenberg-Marquardt algorithm.
In Table D below, A indicates a IC50 (μM)<1 μM, B indicates a IC50 (μM) 1 μM to <10 μM, and C indicates a IC50 (μM) 10 μM to <50 μM. In Table D below, A indicates a >75% Effect at 5 μM μM. B indicates a 50 to <75% Effect at 5 μM μM, and C indicates a <50% Effect at 5 μM.
(Reporter assays use an easily measured gene product as a stand-in for the process of interest.)

Molecule `COc1cc2nc(C)cn2cc1C(=O)Nc1ccc(N2CCNCC2)cn1` [Compound 110, 7-methoxy-2-methyl-N-(5-(piperazin-1-yl)pyridin-2-yl)imidazo[1,2-a]pyridine-6-carboxamide HCl Salt] displayed an IC50 of less than 1000 nM.

Turning to `CCOc1cc2nn(C)cc2cc1C(=O)Nc1ccc(N2CCN3CCC[C@@H]3C2)nn1` [Compound 739, (R)-6-ethoxy-N-(6-(hexahydropyrrolo[1,2-a]pyrazin-2(1H)-yl)pyridazin-3-yl)-2-methyl-2H-indazole-5-carboxamide formate], the IC50 is 1000 to 10000 nM.

In turn, `CCOc1cc2nc(C)cn2cc1C(=O)Nc1ccc(N2CC3=C(CNC3)C2)nn1` [Compound 229] showed an IC50 of less than 1000 nM.

Regarding `CCOc1nc2nc(C)cn2cc1C(=O)Nc1cnc(N2CCN[C@@H](C)C2)cn1` [Compound 722, (S)-7-ethoxy-2-methyl-N-(5-(3-methylpiperazin-1-yl)pyrazin-2-yl)imidazo[1,2-a]pyrimidine-6-carboxamide formate], the IC50 fell in the range of 1000 to 10000 nM.

`COc1cc2nn(C)cc2cc1C(=O)Nc1ccc(N2CCNCC2)cc1F` [Compound 115, N-(2-fluoro-4-(piperazin-1-yl)phenyl)-6-methoxy-2-methyl-2H-indazole-5-carboxamide HCl Salt] came in with an IC50 of less than 1000 nM.

Consider `CCOc1cn2nc(C)cc2cc1C(=O)Nc1cnc(N2CCC(COC3CCNC3)CC2)cn1` (stereo not drawn) [Compound 523], for which the activation at 5 µM is less than 50%.

Consider `CCOc1cc2nc(C)cn2cc1C(=O)Nc1ccc(N2CCC3(CCNCC3)C2)nn1` [Compound 273], for which the IC50 lay within 1000 to 10000 nM.

With `CCOc1cc2nn(C)cc2cc1C(=O)Nc1cnc(NCC2CNC(C)C2)cn1` (stereo not drawn) [Compound 318], the activation at 5 µM is less than 50%.

For the molecule `CCOc1cn2nc(C)cc2cc1C(=O)Nc1cnc(N2CCCC(CCC3CCCNC3)C2)nc1` (stereo not drawn) [Compound 603], the activation at 5 µM is less than 50%.

For the molecule `CCOc1cc2nn(C)cc2cc1C(=O)Nc1cnc(N2CC(N)C3(CC3)C2)nc1` (stereo not drawn) [Compound 444], the activation at 5 µM is less than 50%.

Turning to `CCOc1cc2nn(C)cc2cc1C(=O)Nc1cnc(NCCC2CC3CCC(C2)N3)cn1` (stereo not drawn) [Compound 310], the activation at 5 µM was less than 50%.

In the case of `Cc1cn2cc(C(=O)Nc3ccc(N4CCNCC4)nc3)cc(F)c2n1` [Compound 121, 8-fluoro-2-methyl-N-(6-(piperazin-1-yl)pyridin-3-yl)imidazo[1,2-a]pyridine-6-carboxamide], the activation at 5 µM is less than 50%.

The molecule `CCOc1cc2nc(C)cn2cc1C(=O)Nc1ccc(N2C[C@@H](C)N(C)[C@@H](C)C2)nn1` [Compound 740, 7-ethoxy-2-methyl-N-(6-((3S,5R)-3,4,5-trimethylpiperazin-1-yl)pyridazin-3-yl)imidazo[1,2-a]pyridine-6-carboxamide] displayed an IC50 of 1000 to 10000 nM.

In the case of `CCOc1cn2nc(C)cc2cc1C(=O)Nc1cnc(NCCC2CC(F)(F)CN2)nc1` (stereo not drawn) [Compound 567], the activation at 5 µM was less than 50%.

For the molecule `CCOc1cc2nn(C)cc2cc1C(=O)Nc1ccc(N2C[C@@H](C)N[C@@H](C)C2)nn1` [Compound 751, N-(6-((3S,5R)-3,5-dimethylpiperazin-1-yl)pyridazin-3-yl)-6-ethoxy-2-methyl-2H-indazole-5-carboxamide hydrochloride], the activation at 5 µM is greater than 75%.

The molecule `CCOc1nc2nn(C)cc2cc1C(=O)Nc1ccc(N2CCNCC2)cn1` [Compound 730, 6-ethoxy-2-methyl-N-(5-(piperazin-1-yl)pyridin-2-yl)-2H-pyrazolo[3,4-b]pyridine-5-carboxamide] gave an IC50 of 1000 to 10000 nM.

As to `CCOc1cc2nc(C)cn2cc1C(=O)Nc1cnc(NCC2CCNC23CCC3)cn1` (stereo not drawn) [Compound 659], the activation at 5 µM is greater than 75%.

`CCOc1cc2nn(C)cc2cc1C(=O)Nc1cnc(N2[C@H](CN)C[C@@H]3CCC[C@@H]32)cn1` [Compound 325]: the activation at 5 µM was less than 50%.

For `CCOc1cn2nc(C)cc2cc1C(=O)Nc1cnc(N2CC3CCC2C2CNCC32)cn1` (stereo not drawn) [Compound 492], the activation at 5 µM was 50 to 75%.

In the case of `CCOc1cc2nc(C)cn2cc1C(=O)Nc1cnc(N(C)C2CCNCC2)nc1` [Compound 649], the activation at 5 µM fell in the range of 50 to 75%.

With `CCOc1cc2nn(C)cc2cc1C(=O)Nc1cnc(N2CCC(N)CC2)cn1` [Compound 371], the activation at 5 µM is greater than 75%.

With `CCOc1cc2nc(C)cn2cc1C(=O)Nc1ccc(N2CCCNCC2)nn1` [Compound 294], the IC50 was less than 1000 nM.

Regarding `CCOc1cc2nn(C)cc2cc1C(=O)Nc1cnc(N2C[C@@H](F)C[C@H]2CNC)cn1` [Compound 342], the activation at 5 µM is less than 50%.

For `Cn1cc2cc(C(=O)Nc3ccc(N4CCNCC4)nn3)c(OC3CCC3)cc2n1` [Compound 207, 6-cyclobutoxy-2-methyl-N-(6-(piperazin-1-yl)pyridazin-3-yl)-2H-indazole-5-carboxamide HCl Salt], the IC50 was less than 1000 nM.

In turn, `COc1cc2nc(C)cn2cc1C(=O)Nc1ccc(N2CC3CCC(C2)N3)cc1F` [Compound 165, N-(4-(3,8-diazabicyclo[3.2.1]octan-3-yl)-2-fluorophenyl)-7-methoxy-2-methylimidazo[1,2-a]pyridine-6-carboxamide] showed a 50% inhibitory concentration (IC50) of less than 1000 nM.

For the molecule `CCOc1nc2nn(C)cc2cc1C(=O)Nc1ccc(N2CCN[C@@H](C)C2)nn1` [Compound 225, (S)-6-ethoxy-2-methyl-N-(6-(3-methylpiperazin-1-yl)pyridazin-3-yl)-2H-pyrazolo[3,4-b]pyridine-5-carboxamide hydrochloride], the IC50 is less than 1000 nM.

Consider `CCOc1cc2nn(C)cc2cc1C(=O)Nc1cnc(N2CCN(C)[C@@H](C)C2)cn1` [Compound 743, (S)—N-(5-(3,4-dimethylpiperazin-1-yl)pyrazin-2-yl)-6-ethoxy-2-methyl-2H-indazole-5-carboxamide formate], for which the IC50 lay within 1000 to 10000 nM.

In the case of `CCOc1cc2nc(C)cn2cc1C(=O)Nc1cnc(N2CCC(N)(CC)CC2)nc1` [Compound 639], the activation at 5 µM is greater than 75%.

With `COc1cc2nc(C)cn2cc1C(=O)Nc1ccc(N2CCC3(CCNC3)C2)cc1F` (stereo not drawn) [Compound 145, N-(2-fluoro-4-(2,7-diazaspiro[4.4]nonan-2-yl)phenyl)-7-methoxy-2-methylimidazo[1,2-a]pyridine-6-carboxamide], the activation at 5 µM is less than 50%.

With `CCOc1cc2nn(C)cc2cc1C(=O)Nc1cnc(NC(C)CNC)nc1` (stereo not drawn) [Compound 424], the activation at 5 µM is less than 50%.

As to `CCOc1cn2nc(C)cc2cc1C(=O)Nc1cnc(N(C)CC2CCNC2)nc1` (stereo not drawn) [Compound 583], the activation at 5 µM was less than 50%.

`CCOc1cc2nn(C)cc2cc1C(=O)Nc1cnc(N2CCN[C@@H](C)C2)cn1` [Compound 710, (S)-6-ethoxy-2-methyl-N-(5-(3-methylpiperazin-1-yl)pyrazin-2-yl)-2H-indazole-5-carboxamide formate] yielded an IC50 of less than 1000 nM.

`COc1cc2nc(C)cn2cc1C(=O)Nc1ccc(N(C)C2CCNC2)cc1F` (stereo not drawn) [Compound 178, N-(2-fluoro-4-(methyl(pyrrolidin-3-yl)amino)phenyl)-7-methoxy-2-methylimidazo[1,2-a]pyridine-6-carboxamide] yielded an IC50 of less than 1000 nM.

As for `CCOc1cc2nn(C)cc2cc1C(=O)Nc1cnc(NC2CNCC2(C)C)nc1` (stereo not drawn) [Compound 407], the activation at 5 µM was less than 50%.

Regarding `CCOc1cc2nc(C)cn2cc1C(=O)Nc1ccc(N2CCC3(CCNCC3)CC2)nn1` [Compound 284], the IC50 lay in the range of 1000 to 10000 nM.

With `CCOc1cn2nc(C)cc2cc1C(=O)Nc1cnc(N2CCC(N)C2)cn1` (stereo not drawn) [Compound 556], the activation at 5 µM was greater than 75%.

In turn, `Cc1cn2cc(C(=O)Nc3ccc(N4CCN[C@@H](C)C4)nn3)nc(C)c2n1` [Compound 124, (S)-2,8-dimethyl-N-(6-(3-methylpiperazin-1-yl)pyridazin-3-yl)imidazo[1,2-a]pyrazine-6-carboxamide hydrochloride] yielded an IC50 of 1000 to 10000 nM.

`CCOc1cc2nc(C)cn2cc1C(=O)Nc1ccc(N2C3CCC2CC(NC)C3)nn1` (stereo not drawn) [Compound 247]: the IC50 was in the range of 1000 to 10000 nM.

As for `CCOc1cc2nn(C)cc2cc1C(=O)Nc1cnc(N2CCNCC2)cn1` [Compound 370], the activation at 5 µM is greater than 75%.

As for `CCOc1cc2nc(C)cn2cc1C(=O)Nc1ccc(N2CCNC(C)C2)nn1` (stereo not drawn) [Compound 295], the IC50 was less than 1000 nM.

Consider `CCOc1cc2nc(C)cn2cc1C(=O)Nc1ccc(N2CCC3(CC2)CNC3)nn1` [Compound 287], for which the IC50 fell in the range of 1000 to 10000 nM.

`CCOc1cc2nn(C)cc2cc1C(=O)Nc1cnc(N(C)C2CCNCC2)nc1` [Compound 478]: the activation at 5 µM was 50 to 75%.

Turning to `CCOc1cc2nc(C)cn2cc1C(=O)Nc1cnc(N2CCC(NC)C2)cn1` (stereo not drawn) [Compound 688], the activation at 5 µM was greater than 75%.

On to `COc1cc2nc(C)cn2cc1C(=O)Nc1ccc(N2CC[C@@H]3NCC[C@@H]3C2)cc1F` [Compound 629], for which the IC50 was less than 1000 nM.

As for `CCOc1cn2nc(C)cc2cc1C(=O)Nc1cnc(NC(CNC)Cc2ccccc2)cn1` (stereo not drawn) [Compound 518], the activation at 5 µM is less than 50%.

Regarding `CCOc1cc2nn(C)cc2cc1C(=O)Nc1cnc(NCCCC2CCCN2)nc1` (stereo not drawn) [Compound 398], the activation at 5 µM is less than 50%.

Turning to `CCOc1cn2nc(C)cc2cc1C(=O)Nc1cnc(N(C)CCNC)nc1` [Compound 599], the activation at 5 µM is less than 50%.

Molecule `CCNC1CCN(c2ccc(NC(=O)c3cn4cc(C)nc4cc3OCC)nn2)C1` (stereo not drawn) [Compound 244] yielded an IC50 of less than 1000 nM.

Broadly, the IC50 is the concentration that inhibits the measured activity by half.

Values taken from patent US20250066389A1, “HETEROCYCLIC AMIDES AND METHODS OF USING THE SAME” (Rgenta Therapeutics, Inc., priority 2021, published 2025).
